Data on four compounds can be found in patent US6573084B1, “Process for the deacylation of cyclic lipopeptides” (Fujisawa Pharmaceutical Co., Ltd., priority 1996, dated 2003).

Experiment [1] has as its target T1, Actinoplanes utahensis-derived acylase (Actinoplanes utahensis, UniProt P29958).
T1 construct: To 20 ml of a fermentation broth of Actinoplanes utahensis IF013244; endogenous in cells; host or cells: Actinoplanes utahensis IF013244 (so in the source), whole fermentation broth
T1 sequence (P29958 230-786 limits assumed): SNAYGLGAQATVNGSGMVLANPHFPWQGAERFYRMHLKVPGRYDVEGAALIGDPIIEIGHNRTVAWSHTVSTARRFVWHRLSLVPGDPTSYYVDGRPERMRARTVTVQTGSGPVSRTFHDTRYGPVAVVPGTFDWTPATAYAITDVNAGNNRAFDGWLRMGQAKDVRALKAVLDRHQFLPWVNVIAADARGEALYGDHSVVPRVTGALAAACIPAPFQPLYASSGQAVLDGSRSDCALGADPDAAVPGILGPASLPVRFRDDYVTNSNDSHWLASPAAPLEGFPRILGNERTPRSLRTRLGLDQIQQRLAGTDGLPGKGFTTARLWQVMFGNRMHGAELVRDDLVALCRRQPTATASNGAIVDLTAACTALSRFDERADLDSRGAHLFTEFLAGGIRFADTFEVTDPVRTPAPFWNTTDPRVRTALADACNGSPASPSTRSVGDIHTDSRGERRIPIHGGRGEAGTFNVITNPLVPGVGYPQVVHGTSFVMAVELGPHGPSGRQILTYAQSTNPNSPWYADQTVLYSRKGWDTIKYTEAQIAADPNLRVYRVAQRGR
T1 sequence (P29958 35-214 limits assumed): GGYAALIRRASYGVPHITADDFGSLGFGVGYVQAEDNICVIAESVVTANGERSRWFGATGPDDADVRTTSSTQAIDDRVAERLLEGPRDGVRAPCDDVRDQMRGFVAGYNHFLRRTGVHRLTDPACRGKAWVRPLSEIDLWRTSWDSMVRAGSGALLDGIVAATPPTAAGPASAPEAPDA
Put plainly: Deacylation of Substance FR901469 by Actinoplanes utahensis acylase (HPLC of Substance FR181131). The settings on record: produces Substance FR181131. The class given is biochemical, Actinoplanes utahensis IF013244. Here is the method: To 20 ml of a fermentation broth of Actinoplanes utahensis IF013244 as prepared by the procedure described in J. Antibiotics, Vol. 41, p. 1085-1092 ('88) was added 1 ml of an aqueous solution of Substance FR901469 (200 mg/ml) (0.2 g as Substance FR901469; 130 μmol) together with 2.9 g of disodium hydrogen phosphate and 60 ml of water, and the reaction was carried out at 60° C. for 24 hours. After completion of the reaction, the reaction mixture was filtered through a membrane filter (0.45 μm) to remove the high molecular protein and other fraction and purified by HPLC under monitoring for Substance FR181131 at 210 nm and the acylase activity was determined. Using a variable wavelength UV detector (Shimadzu SPD-10A), a pump (Shimadzu LC-10AD) and an integrator (Shimadzu C-R6A) as the instrumentation, YMC AM303 (250 mm×4 mm i.d., particle diameter 5 μm) as the stationary phase, and 12.5% acetonitrile/0.5% ammonium dihydrogen phosphate as the mobile phase, Substance FR181131 was eluted at a flow rate of 1 ml/min. The retention time of Substance FR181131 was about 7.3 minutes. The yield of Substance FR181131 as calculated from HPLC data was 80 mg (68 μmol).

Experiment [2] concerns acylase produced by Streptomyces sp. No. 6907. In words: Deacylation of cyclic lipopeptide substrates by the acylase of Streptomyces sp. No. 6907 (HPLC, Lineweaver-Burk, substrate specificity). The class given is biochemical. The settings on record: for Vmax / Km: substrate of the acylase, fermentation broth of Streptomyces sp. No. 6907; for Km: read-out: Km value determined by the Lineweaver-Burk method. As to the method: To 700 μl of the fermentation broth of Streptomyces sp. No. 6907 obtained in Example 1-3 was added 100 μl of an aqueous solution of Substance FR901379 (100 mg/ml) (10 mg as Substance FR901379; 8.35 μmol) together with 100 μl of methanol and 100 μl of buffer (0.5 M potassium dihydrogen phosphate-disodium hydrogen phosphate buffer; pH 6.0), and the reaction was carried out at 30° C. for 30 minutes. The reaction was then stopped with 4% acetic acid and following addition of 2 ml of methanol, the mixture was filtered through a membrane filter (0.45 μm) to remove the macromolecular protein and other fraction and subjected to HPLC and the acylase activity of the skeletal substance FR179642 produced was monitored and assayed at 210 nm.
Using a variable wavelength UV detector (Shimadzu SPD-10A), a pump (Shimadzu LC-10AD) and an integrator (Shimadzu C-R6A) as the instrumentation, LiChrospher 100RP-18(e) (250 mm×4 mm i.d., particle diameter 5 μm(E.Merck)) as the stationary phase, and 3% acetonitrile/0.5% ammonium dihydrogen phosphate as the mobile phase, Substance FR179642 was eluted at a flow rate of 1 ml/min. The retention time of Substance FR179642 was about 6.3 minutes. The yield of Substance FR179642 as calculated from HPLC data was 560 μg (0.60 μmol).
(§1) To 100 μl of the fermentation broth of Streptomyces sp. No. 6907 obtained in Example 1-3 was added 100 μl of a dimethyl sulfoxide solution of Aculeacin A (100 mg/ml) (10 mg as Aculeacin A; 9.65 μmol) together with 500 μl of 1.2 M KCl-containing 500 mM potassium dihydrogen phosphate-disodium hydrogen phosphate buffer (pH 7.0) and 300 μl of water, and the reaction was carried out at 40° C. for 15 minutes. The reaction was then stopped with 1 ml of 4% acetic acid and following addition of 2 ml of methanol, the mixture was filtered through a membrane filter (0.45 μm) to remove the macromolecular protein and other fraction and subjected to HPLC and the acylase activity of the nuclear substance Aculeacin A produced was monitored at 210 nm and determined. Using a variable wavelength UV detector (Shimadzu SPD-10A), a pump (Shimadzu LC-10AD) and an integrator (Shimadzu C-R6A) as the instrumentation, LiChrospher 100RP-18(e) (250 mm×4 mm i.d., particle diameter 5 μm (E.Merck)) as the stationary phase, and 4% acetonitrile/1% ammonium dihydrogen phosphate as the mobile phase, nuclear substance Aculeacin A was eluted at a flow rate of 1 ml/min. The retention time of nuclear substance Aculeacin A was about 8.7 minutes. The yield of nuclear substance Aculeacin A as calculated from HPLC data was 370 μg (0.47 μmol).
as §1, with “Echinocandin B” for “Aculeacin A”, “Echinocandin B; 9.43” for “Aculeacin A; 9.65”, “monitored and assayed” for “monitored”, “nm.” for “nm and determined.”, “90” for “370”, “(0.11” for “(0.47”
To 2.0 ml of the fermentation broth of Streptomyces sp. […]

Where two headings read alike, the source gives them in different places. Starred links: 1 amine or outer side, 2 acyl side, 3 side chain; linkers in the order of their positions; H or OH if unused. Positions of bridges follow the written chain, without caps; N, C: chain ends. Non-standard residues stand in square brackets, D forms with d. Residues, ends and D or L forms follow the SMILES beside them. ξ: configuration not given here. *: point of attachment. X1 = O=C(C(N[*:1])C(O)C(O)c1ccc(O)c(OS(=O)(=O)O)c1)[*:2]; ξOrn(4,5-diOH) = O=C(C(CC(O)C(O)N[*:3])N[*:1])[*:2]; X4 = CCCCCCCCCCCCCC(CC(=O)[*:1])O[*:2]; ξPro(3ξ-OH,4ξ-Me) = CC1CNC(C(=O)O)C1O; X2 = NC(=O)CC(O)C(N[*:1])C(=O)[*:2]; Palmitoyl = CCCCCCCCCCCCCCCC(=O)*; X3 = O=C(C1C(O)CCN1[*:1])[*:2]; Hyp = O=C(O)[CH]1C[CH](O)CN1; Orn = NCCC[CH](N)C(=O)O

With `CCCCCCCCCCCCCC1CC(=O)NC(C(C)O)C(=O)NC(C)C(=O)NC(Cc2ccc(O)cc2)C(=O)NC(C(C)C)C(=O)N2CC(O)CC2C(=O)NC(C(C)O)C(=O)NC(C(C)O)C(=O)N2CCC(O)C2C(=O)NC(C(O)CC(N)=O)C(=O)NCC(=O)NC(C(C)O)C(=O)NC(CCCN)C(=O)O1` (stereo not drawn) [Substance FR901469] (TAYV[Hyp]TT[X3][X2]GT[Orn]; linker N-C via X4; configuration not given here), the “Substrate specificity (catalytic action of the acylase on the substrate)” value (“Substrate specificity” for short) in experiment [1] is “exerts a catalytic action”; in experiment [2], “exerts no catalytic action”; in experiment [2] (listed as FR901469), “does not act upon”.

For Aculeacin A, in experiment [2], the “Substrate specificity” value is “acts as a catalyst”; the Vmax was 16.8 U/mg-protein; the Km (as a rule, the substrate concentration at which the rate is half of its maximum) was 279 µM.

With Echinocandin B, in experiment [2], the “Substrate specificity” value was “acts as a catalyst”, the Vmax is on record as 7.85 U/mg-protein and the Km worked out at 146 µM.

Regarding `CCCCCCCCCCCCCCCC(=O)NC1CC(O)C(O)NC(=O)C2C(O)C(C)CN2C(=O)C(C(O)CC(N)=O)NC(=O)C(C(O)C(O)c2ccc(O)c(OS(=O)(=O)O)c2)NC(=O)C2CC(O)CN2C(=O)C(C(C)O)NC1=O` (stereo not drawn) [Substance FR901379] (Palmitoyl-[ξOrn(4,5-diOH)]T[Hyp][X1][X2][ξPro(3ξ-OH,4ξ-Me)]; lactam 1-C; configuration not given here), in experiment [2], the “Substrate specificity” value was “acts as a catalyst”, the Vmax was 14.3 U/mg-protein and the Km amounted to 257 µM.
